Data: PMC8151276, “An Integrated Approach toward NanoBRET Tracers for Analysis of GPCR Ligand Engagement” (Molecules, 2021)
Values joined by “and” are separate entries in the source; they are usually repeats but may differ in a detail not shown here. Equal values may be shown once. Read-outs that look alike come from different tables or passages of the source.

Legend:
HTR1A = target: T1, HTR1A (Homo sapiens, UniProt P08908); assay: NanoBRET screen HiBiT-HTR1A in HEK293; format: binding
T1 construct: purchased Promega (in-house HiBiT-GPCR construct library, NanoBRET)
T1 sequence (P08908 1-422): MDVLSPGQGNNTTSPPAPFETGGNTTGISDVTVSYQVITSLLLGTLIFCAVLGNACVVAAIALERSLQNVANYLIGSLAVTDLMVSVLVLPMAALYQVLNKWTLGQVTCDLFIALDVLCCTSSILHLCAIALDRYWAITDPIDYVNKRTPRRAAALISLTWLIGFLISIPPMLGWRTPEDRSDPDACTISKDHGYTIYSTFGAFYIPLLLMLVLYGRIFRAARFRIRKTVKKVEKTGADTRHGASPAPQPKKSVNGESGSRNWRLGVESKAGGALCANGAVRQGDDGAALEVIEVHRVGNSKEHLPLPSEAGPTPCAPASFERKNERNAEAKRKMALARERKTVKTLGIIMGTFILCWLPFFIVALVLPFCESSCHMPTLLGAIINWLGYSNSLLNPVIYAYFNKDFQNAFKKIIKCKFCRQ
Experimental: Each tracer candidate was screened across the entire library of HiBiT-GPCR constructs using NanoBRET as the detection modality. As depicted in Figure 4A, the specificity of interactions was evaluated through decrease in BRET due to competitive displacement of a bound tracer by excess parental compound. Each tracer was analyzed for binding to each HiBiT-GPCR fusion in the absence and in the presence of competing parental compound. Briefly, HEK293 cells were transfected with HiBiT-GPCR constructs diluted into promoterless DNA to reduce expression and maximize translocation to the cell surface. Each tracer candidate was then screened at concentrations of 1 μM and 0.1 μM across cells expressing these fusions. Cells were treated for 1.5 h with tracer either alone or in the presence of 20 μM competing parental compound (i.e., control). BRET was measured upon addition of purified LgBiT and subsequent complementation with HiBiT genetically fused to a GPCR. The specificity of interactions was assessed through a decrease in BRET signal due to competitive displacement of the bound tracer. To further gauge the robustness of these interactions, the fold response over the control (i.e., BRETtracer/BRETcontrol) was calculated. We chose a 1.5-fold response, which translates to ≥7-fold signal over noise as the minimal threshold required to score an interaction as positive.
HiBiT-GPCR DNA constructs were diluted in 10 mM Tris pH 8 to a final concentration of 0.01 μg/μL, arrayed in 96-well plates and stored at −20 °C. For transfection, HEK293 cells were suspended in Opti-MEM (without phenol red) supplemented with 2% fetal bovine serum (Seradigm) and 100 units/mL penicillin–streptomycin (Gibco) at a final concentration of 220,000 cells/mL and dispensed into white 96-well plates at 90 μL/well. Subsequent transfections and screens were carried using an Agilent Bravo Automated Liquid Handling Platform. First, the 96-well HiBiT DNA arrays were diluted 25-fold in Opti-MEM (without serum or phenol red) to a final concentration of 0.0004 μg/μL and 20 μL of the diluted DNAs were transferred into new 96-well plates. Next, promoterless carrier DNA (1 μg/μL) was diluted 25-fold (0.04 μg/μL) and then dispensed into the diluted arrays at 20 μL/well. Following brief mixing, Viafect transfection reagent (Promega) diluted 16-fold into Opti-MEM was dispensed into the plates at 40 μL/well. After mixing by pipetting, plates were incubated for 10 min on the pipetting station deck. The DNA-transfection reagent complexes were then added to plates containing cells. To facilitate the screen, 10 μL of DNA-transfection reagent complexes were added in duplicates to the top 4 and bottom 4 rows, resulting in two identical 48-well arrays per plate. Plates with transfected cells were incubated for 18–20 h at 37 °C/5% CO2. A screen of each tracer across the entire library using two different concentrations requires duplicate plates of transfected cells. Depending on the number of tracers being screened, transfections can be scaled up using the same ratios. The next day, for each tracer, four 20× screening solutions in tracer dilution buffer (Promega) were prepared: two duplicates at final concentration of 20 μM and two duplicates at a final concentration of 2 μM. […] The four resulting solutions were diluted 4-fold in Opti-MEM without serum or phenol red to generate 5× solutions (5 µM and 0.5 µM tracer +/− 100 μM competing compound). To screen the library, a BioTek MultiFlo FX liquid dispenser was used to dispense 22.5 µL of tracer solution to the top 4 rows and 22.5 µL tracer + competing compound solution to the 4 bottom rows. Plates were briefly mixed on an orbital shaker and incubated for 1.5 h at room temperature. […] Plates were briefly mixed on an orbital shaker and incubated for 15 min to allow complementation.

HTR2A = target: T2, HTR2A (Homo sapiens, UniProt P28223); assay: NanoBRET screen HiBiT-HTR2A in HEK293; format: binding
T2 construct: purchased Promega (in-house HiBiT-GPCR construct library, NanoBRET)
T2 sequence (P28223 whole entry): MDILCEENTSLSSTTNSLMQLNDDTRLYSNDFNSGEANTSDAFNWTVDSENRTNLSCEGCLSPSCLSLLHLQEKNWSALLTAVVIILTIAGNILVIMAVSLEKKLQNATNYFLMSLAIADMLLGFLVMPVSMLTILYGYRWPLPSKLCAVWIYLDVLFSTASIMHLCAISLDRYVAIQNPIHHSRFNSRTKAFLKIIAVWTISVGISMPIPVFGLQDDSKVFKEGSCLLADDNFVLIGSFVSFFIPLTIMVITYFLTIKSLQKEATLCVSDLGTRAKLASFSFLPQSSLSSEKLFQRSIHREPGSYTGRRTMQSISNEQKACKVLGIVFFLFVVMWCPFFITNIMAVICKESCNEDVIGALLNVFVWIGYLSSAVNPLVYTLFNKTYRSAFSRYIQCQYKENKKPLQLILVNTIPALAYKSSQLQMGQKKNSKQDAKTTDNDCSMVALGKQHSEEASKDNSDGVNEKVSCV

O=C(CCc1ccc2n1[B-](F)(F)[N+]1=C(c3ccc[nH]3)C=CC1=C2)NCc1ccc(C(=O)NCCOCCC(=O)N[C@@H]2CC[C@@]3(O)[C@H]4Cc5ccc(O)c6c5[C@@]3(CCN4CC3CC3)[C@H]2O6)cc1 [Naltrexone-3-NB590]
NanoBRET Fold Response (HTR1A; HTR1A, tracer 0.1μM): 0.94
NanoBRET Fold Response (HTR1A; HTR1A, tracer 1μM): 1.03

CN1CCN(C2=Nc3cc(Cl)ccc3N(CC(=O)NCCOCCOCCOCCOCCNC(=O)CCc3ccc4n3[B-](F)(F)[N+]3=C(c5ccc[nH]5)C=CC3=C4)c3ccccc32)CC1 [Clozapine-c-2-NB590]
NanoBRET Fold Response (HTR1A; HTR1A, 1μM tracer): 1.12

O=C(CCOCCOCCOCCOCCNC(=O)CCc1ccc2n1[B-](F)(F)[N+]1=C(c3ccc[nH]3)C=CC1=C2)NCCCN1CCN(C2=Nc3cc(Cl)ccc3Nc3ccccc32)CC1 [Clozapine-a-2-NB590]
NanoBRET Fold Response (HTR1A; HTR1A, 0.1μM tracer): 1.16
NanoBRET Fold Response (HTR1A; HTR1A, 1μM tracer): 0.98
NanoBRET Fold Response (HTR2A; HTR2A, 0.1μM tracer): 2.26
NanoBRET Fold Response (HTR2A; HTR2A, 1μM tracer): 2.01

CCOC(=O)c1cc(C#N)c(N2CCC(C(=O)NS(=O)(=O)Cc3ccccc3/C=C/C(=O)NCCNC(=O)CCc3ccc4n3[B-](F)(F)[N+]3=C(c5ccc[nH]5)C=CC3=C4)CC2)nc1C [AZD1283-1-NB590]
NanoBRET Fold Response (HTR1A; HTR1A, 0.1μM): 0.97
NanoBRET Fold Response (HTR1A; HTR1A, 1μM): 1.04
NanoBRET Fold Response (HTR2A; HTR2A, 0.1μM): 0.96
NanoBRET Fold Response (HTR2A; HTR2A, 1μM): 1.01

COc1ccc2[nH]c(-c3ccc(CNC(=O)CCOCCOCCOCCOCCNC(=O)CCc4ccc5n4[B-](F)(F)[N+]4=C(c6ccc[nH]6)C=CC4=C5)cc3)c(CCNC(C)=O)c2n1 [AzomelatoninICO9-2-NB590]
NanoBRET Fold Response (HTR1A; 0.1μM tracer): 0.95
NanoBRET Fold Response (HTR1A; 1μM tracer): 1.15
NanoBRET Fold Response (HTR2A; 0.1μM tracer): 0.92
NanoBRET Fold Response (HTR2A; 1μM tracer): 1.02

CCCn1c(=O)c2[nH]c(-c3ccc(OCC(=O)NCCNC(=O)CCOCCNC(=O)c4ccc(CNC(=O)CCc5ccc6n5[B-](F)(F)[N+]5=C(c7ccc[nH]7)C=CC5=C6)cc4)cc3)nc2n(CCC)c1=O [XAC-3-NB590]
NanoBRET Fold Response (HTR1A; HTR1A, tracer 0.1μM): 1.01
NanoBRET Fold Response (HTR1A; HTR1A, tracer 1μM): 0.89
NanoBRET Fold Response (HTR2A; HTR2A, tracer 0.1μM): 0.99
NanoBRET Fold Response (HTR2A; HTR2A, tracer 1μM): 1.10

COc1ccccc1N1CCN(CCCCN2C(=O)c3ccc(CNC(=O)CCOCCNC(=O)c4ccc(CNC(=O)CCc5ccc6n5[B-](F)(F)[N+]5=C(c7ccc[nH]7)C=CC5=C6)cc4)cc3C2=O)CC1 [NAN-190-3-NB590]
NanoBRET Fold Response (HTR1A; HTR1A, tracer 1μM): 1.70
NanoBRET Fold Response (HTR2A): 1.14 and 1.13

CN(CCC=C1c2ccccc2CCc2ccccc21)C(=O)CCOCCOCCOCCOCCNC(=O)CCc1ccc2n1[B-](F)(F)[N+]1=C(c3ccc[nH]3)C=CC1=C2 [Amitriptyline-e-2-NB590]
NanoBRET Fold Response (HTR1A; tracer at 1μM): 0.99

O=C(CCc1ccc2n1[B-](F)(F)[N+]1=C(c3ccc[nH]3)C=CC1=C2)NCc1ccc(C(=O)NCCOCCOCCNCC(O)COc2cccc3ccccc23)cc1 (centres unmarked) [Propranolol-3-NB590]
NanoBRET Fold Response (HTR1A; HTR1A, 0.1μM): 1.38
NanoBRET Fold Response (HTR1A; HTR1A, 1μM): 1.39

COc1ccc2c(n1)c(CCNC(C)=O)cn2CCNC(=O)CCc1ccc2n1[B-](F)(F)[N+]1=C(c3ccc[nH]3)C=CC1=C2 [Azamelatonin-1-NB590]
NanoBRET Fold Response (HTR1A; 0.1μM tracer): 1.02
NanoBRET Fold Response (HTR1A; 1μM tracer): 1.02
NanoBRET Fold Response (HTR2A; 0.1μM tracer): 1.06
NanoBRET Fold Response (HTR2A; 1μM tracer): 1.06

O=C(CCOCCOCCOCCOCCNC(=O)CCc1ccc2n1[B-](F)(F)[N+]1=C(c3ccc[nH]3)C=CC1=C2)NCCCN1CCN(C2=Nc3ccccc3Oc3ccc(Cl)cc32)CC1 [Loxapine-a-2-NB590]
NanoBRET Fold Response (HTR1A; HTR1A, tracer 0.1μM): 1.15
NanoBRET Fold Response (HTR1A; HTR1A, tracer 1μM): 1.19
NanoBRET Fold Response (HTR2A): 1.71 and 1.28

N#CN/C(=N\CCNC(=O)c1ccc(N)cc1)NCCCOc1cccc(CN2CCCCC2)c1 [Aminopotentidine (unmodified)]
NanoBRET Fold Response (HTR1A; HTR1A, other tracers/Aminopotentidine (unmodified), 0.1μM): 1.28
NanoBRET Fold Response (HTR1A; HTR1A, other tracers/Aminopotentidine (unmodified), 1μM): 1.69
NanoBRET Fold Response (HTR2A; HTR2A, other tracers/Aminopotentidine (unmodified), 0.1μM): 1.10
NanoBRET Fold Response (HTR2A; HTR2A, other tracers/Aminopotentidine (unmodified), 1μM): 1.07

COc1ccccc1N1CCN(CCCCN2C(=O)c3ccc(CNC(=O)CCOCCOCCOCCOCCNC(=O)CCc4ccc5n4[B-](F)(F)[N+]4=C(c6ccc[nH]6)C=CC4=C5)cc3C2=O)CC1 [NAN-190-2-NB590]
NanoBRET Fold Response (HTR1A; HTR1A, tracer 0.1μM): 2.15
NanoBRET Fold Response (HTR1A; HTR1A, tracer 1μM): 1.76
NanoBRET Fold Response (HTR2A): 0.97

O=C(CCc1ccc2n1[B-](F)(F)[N+]1=C(c3ccc[nH]3)C=CC1=C2)NCCOCCOCCNC(=O)OCCOCCN1CCN(C2=Nc3ccccc3Sc3ccccc32)CC1 [Quetiapine-a-2-NB590]
NanoBRET Fold Response (HTR1A; HTR1A, tracer 0.1μM): 1.09
NanoBRET Fold Response (HTR1A; HTR1A, tracer 1μM): 1.04

CN1CCN(C2=Nc3cc(Cl)ccc3Nc3ccc(CNC(=O)CCOCCOCCOCCOCCNC(=O)CCc4ccc5n4[B-](F)(F)[N+]4=C(c6ccc[nH]6)C=CC4=C5)cc32)CC1 [Clozapine-b-2-NB590]
NanoBRET Fold Response (HTR1A; HTR1A, 0.1μM tracer): 0.98
NanoBRET Fold Response (HTR1A; HTR1A, 1μM tracer): 1.21

CN(C)CCC=C1c2ccccc2CCc2ccc(C(=O)NCCNC(=O)CCOCCOCCOCCOCCNC(=O)CCc3ccc4n3[B-](F)(F)[N+]3=C(c5ccc[nH]5)C=CC3=C4)cc21 [Amitriptyline-a-2-NB590]
NanoBRET Fold Response (HTR1A; tracer at 0.1μM): 1.33
NanoBRET Fold Response (HTR1A; tracer at 1μM): 1.04

Cc1cc2c(s1)Nc1ccccc1N=C2N1CCN(CCCNC(=O)CCOCCOCCOCCOCCNC(=O)CCc2ccc3n2[B-](F)(F)[N+]2=C(c4ccc[nH]4)C=CC2=C3)CC1 [Olanzapine-a-2-NB590]
NanoBRET Fold Response (HTR1A; HTR1A, tracer 0.1μM): 0.99
NanoBRET Fold Response (HTR1A; HTR1A, tracer 1μM): 1.06

Cc1nc2n(c(=O)c1CCN1CCC(c3noc4cc(F)ccc34)CC1)CCCC2OC(=O)NCCOCCOCCOCCOCCNC(=O)CCc1ccc2n1[B-](F)(F)[N+]1=C(c3ccc[nH]3)C=CC1=C2 (centres unmarked) [Risperidone-2-NB590]
NanoBRET Fold Response (HTR1A; HTR1A, tracer 0.1μM): 1.24
NanoBRET Fold Response (HTR1A; HTR1A, tracer 1μM): 1.15

CN(C)CCC=C1c2ccccc2CCc2ccc(C(=O)NCCNC(=O)CCOCCOCCOCCOCCNC(=O)CCc3ccc4n3[B-](F)(F)[N+]3=C(c5ccc[nH]5)C=CC3=C4)cc21 [Amitriptyline-b-2-NB590]
NanoBRET Fold Response (HTR1A; tracer at 0.1μM, listed as amitriptyline-b-2-NB590): 1.19
NanoBRET Fold Response (HTR1A; tracer at 1μM, listed as amitriptyline-b-2-NB590): 1.02
